Data from PubChem BioAssay AID463074 (Broad Institute, 2010).
The source made the active and inactive calls.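 The calls were made as follows: active = AC50 no more than tenfold above the top dose tested, or full inhibition at every dose with a flat fit (cut at about 19 µM in these data); inconclusive = flat curve fit with inhibition between 30% and 70%, or poor fit; inactive = AC50 more than tenfold above the top dose tested.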 Residues, ends and D or L forms follow the SMILES beside them. *: point of attachment. Boc = CC(C)(C)OC(=O)*; Bn = c1ccc(C*)cc1

Tested on: HMLE_sh_eGFP viability, CellTiter-Glo luminescence, 72 h
Experiment: viability loss of HMLE_sh_eGFP cells – cell-based, luminescence, counter-screen for HMLE_sh_ECad selective toxicity project, dose response (AID 463074);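 also: counterscreen control line to flag general toxicity for the HMLE_sh_ECad screen; potency for loss of viability as luminescence drops below DMSO wells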

Structure (SMILES)	AC50
O=c1c2ccccc2nc2n1C1(CCCCC1)Cc1ccccc1-2	4.03 µM
Cc1ccccc1CNc1ccc(C(CC(N)=O)NC(=O)c2ccccc2)cc1[N+](=O)[O-] (stereo not drawn)	6.24 µM
COc1cc([C@@H]2c3cc4c(cc3[C@@H](O)[C@H]3COC(=O)[C@H]23)OCO4)cc(OC)c1O[Si](C)(C)C(C)(C)C	6.76 µM
CCCc1ccc(-c2cc(NC(=O)CSc3n[nH]c(N)n3)n(-c3ccccc3)n2)cc1	6.1 µM
Cc1ccccc1NCc1ccc([N+](=O)[O-])s1	10.6 µM
O=C(Nc1nc2ccc(SC(F)F)cc2s1)c1ccc(NS(=O)(=O)c2ccc(F)c(F)c2)cc1	3.58 µM
CC(C)CN=C(NS(=O)(=O)c1ccccc1)C(Cl)(Cl)Cl	3.27 µM
c1ccc(-c2cc3c(NCC4COc5ccccc5O4)ncnc3s2)cc1 (stereo not drawn)	4.99 µM
CCCCNc1nc(Nc2ccc(C)c(Cl)c2)c2cnn(C)c2n1	11.5 µM
O=C(Nc1ccc(OCC(F)(F)C(F)F)c(C(F)(F)F)c1)c1ccc(Cl)cc1	3.19 µM
COc1ccc(-c2cc([C@H]3[C@@H]4C=CCC[C@@]4(C)C(=O)N3Cc3ccccc3)ccc2F)cc1OC	5.67 µM
COc1ccccc1NC(=O)c1ccc(S(=O)(=O)N2CCCC(C)C2)cc1 (stereo not drawn)	> 19.5 µM (inactive)
CC(C)CC(NC(=O)C(NC(=O)C(Cc1ccc(OCc2ccccc2)cc1)NC(=O)OC(C)(C)C)C(C)C)C(N)=O (stereo not drawn) (Boc-Tyr(Bn)-Val-Leu-NH2; configuration not given here)	> 19.5 µM (inactive)
Oc1ccccc1-n1c(-c2ccccc2)ccc1-c1ccccc1	7.62 µM
CCOc1ccc(NC(=O)Nc2ccc(Cc3ccncc3)cc2)cc1	7.84 µM
O=[N+]([O-])/C=C/c1cn(Cc2ccc(F)cc2)c2ccccc12	6.86 µM
COc1cccc(C(=O)/C=C/c2ccc(N3CCCCC3)c([N+](=O)[O-])c2)c1	6.69 µM
Cc1cc(F)ccc1S(=O)(=O)Nc1ccccc1C(=O)Nc1ccccc1-c1nc2ccccc2[nH]1	5.51 µM
CCOc1ccc(OCc2cccc(C(=O)Nc3ccc(CN4CCCCC4)cc3)c2)cc1	5.38 µM
Cc1cccc(CN2C(=O)[C@@H]3Cc4c([nH]c5ccccc45)C(C)(C)N3C2=O)c1	12.3 µM
O=C(O)c1ccccc1C(=O)NNc1ccc(Cl)cc1	3.95 µM
COc1ccc2c(C)nc(Nc3nc(C)c(C)c(=O)[nH]3)nc2c1	7.16 µM
Cc1ccc(C(=O)N/N=C\c2ccc(-c3ccc(Cl)c(Cl)c3)o2)cn1	5.54 µM
O=C(Nc1ccccc1N1CCCCC1)c1ccc(Cl)c([N+](=O)[O-])c1	3.24 µM
O=C(NNC1=C(C(=O)C(F)(F)F)CCC1)c1cccc(Cl)c1	3.64 µM
CC/C(=N\Nc1ccccc1)c1c(O)n(-c2ccccc2)c(=O)[nH]c1=O	2.16 µM

Structure (SMILES)	AC50
O=c1c(Cl)c(NCc2ccccc2Cl)cnn1C12CC3CC(CC(C3)C1)C2	2.43 µM
FC(F)(F)c1nnc(-c2ccccc2)nc1Sc1ccc(Cl)cc1	6.48 µM
Cc1cc(C)nc(SCc2ccc(C(=O)NNC(=O)Nc3cccc(Cl)c3)cc2)n1	3.92 µM
Cc1ccc(-c2csc(NCCn3c(-c4ccncc4)nc4cc(C(F)(F)F)ccc43)n2)cc1	10.7 µM
Cc1nn(Cc2ccc(Cl)cc2)c(C)c1NC(=O)c1cc(-c2ccc3c(c2)OCO3)on1	1.17 µM
CCCCCCSc1cc(-c2nc3cc(C)ccn3c2NCCCC)ccc1OC	8.88 µM
N#C/C(=C/c1cn(-c2ccccc2)nc1-c1cccc(OCc2ccccc2)c1)C(=O)NCCCn1ccnc1	6.25 µM
COc1cc2nc(Nc3ccc(C)c(Cl)c3)nc(N)c2cc1OC	6.97 µM
CNC[C@H](CC1CCCCC1)NC[C@H](CO)NCCc1cccc(C(F)(F)F)c1	6.71 µM
O=C(Nc1ccc(Cl)cc1)c1nc[nH]c1C(=O)NCCN(CCNC(=O)c1[nH]cnc1C(=O)Nc1ccc(Cl)cc1)CCNC(=O)c1[nH]cnc1C(=O)Nc1ccc(Cl)cc1	4.36 µM
FC(F)(F)c1cc(-c2ccc(Cl)cc2)nc(NCc2cccnc2)n1	14 µM
COc1ccc(C(=O)NCC2(c3ccccc3)CCCC2)c(OC)c1	9.54 µM
CCCCNC(=O)c1ccc(Cn2c(=S)[nH]c3c([nH]c4ccc(OC)cc43)c2=O)cc1	1.38 µM
C[C@@H]1O[C@@H](O[C@@H]2C=C3CCC4C(CC[C@]5(C)[C@@H](c6ccc(=O)oc6)CC[C@]45O)[C@@]3(C)CC2)[C@H](O)[C@H](O)[C@H]1O (stereo partly drawn)	< 0.16 µM
Sc1nnc(-c2ccc(Cl)cc2)n1Cc1ccccc1	8.62 µM
O=c1[nH]c(=O)n(CCC2=CCCCC2)c(O)c1/C=N/Nc1ccccc1	3.76 µM
CCOC(=O)N1C(=O)[C@@](c2ccc(Cl)cc2)(C(C)C)N1C(=O)OCC	7.14 µM
Cc1cccc(NC2=C/C(=N/S(=O)(=O)c3cccs3)c3ccccc3C2=O)c1	0.934 µM
O=[N+]([O-])c1ccc(-c2nc(Nc3cccc(O)c3)c3ccccc3n2)cc1	3.89 µM
Cc1ccc(-c2cc([C@H]3[C@@H]4C=CCC[C@@]4(C)C(=O)N3Cc3ccccc3)ccc2F)cc1	5.2 µM
O=C1C=C(Nc2ccc(F)cc2)c2ccccc2C1=O	6.78 µM
COc1ccc(-c2nc3cnccn3c2NC2CCCCC2)cc1-c1cccc(Cl)c1	6.62 µM
CC(=O)O[C@H]1[C@H]2O[C@]23[C@@H]2CC[C@]4(O)C[C@@H](O)CC[C@]4(C)C2CC[C@]3(C)[C@H]1c1ccc(=O)oc1 (stereo partly drawn)	< 0.16 µM
O=S(=O)(Nc1ccc(-n2cccc2)cc1)c1ccc(Cl)c(Cl)c1	5.21 µM
CCCCc1ccc(NC(=O)Nc2cc(C)nn2C)cc1	2.09 µM
CSc1c(SCc2ccccc2)cnn(-c2ccccc2)c1=O	5.71 µM

Structure (SMILES)	AC50
CN(C)C(=O)/C(C#N)=C\c1cc(Br)c(Sc2ccc(Cl)cc2)o1	4.46 µM
O=c1cc(N2CCCCC2)c(-c2ccccc2)nn1Cc1c(Cl)cccc1Cl	5.72 µM
O=C(/C(=C/c1cccc(Cl)c1)c1nc2ccccc2[nH]1)c1ccccc1	3.35 µM
CCN(CC)CCNC(=O)c1[nH]c2ccc(OCc3ccccc3)cc2c1C	1.81 µM
CC(C)[C@@H]1CC[C@@H](C)c2c(-c3ccccc3)n[nH]c21	6.38 µM
Oc1ccc(-c2cc(-c3ccc(O)cc3)nc(-c3ccccc3)n2)cc1	3.77 µM
O=C(NC(CSCc1ccccc1)C(=O)N/N=C/c1ccc(O)cc1O)c1ccc([N+](=O)[O-])cc1 (stereo not drawn)	2.14 µM
Cc1ccc(-c2cc(NC(=O)CCl)n(-c3ccccc3)n2)cc1	7.29 µM
CCOCCCNC(=O)/C(C#N)=C/c1ccc([N+](=O)[O-])o1	8.21 µM
O=C(NCCN1CCOCC1)NC1(C(F)(F)F)Oc2ccc(Cl)cc2O1 (stereo not drawn)	14 µM
COc1ccc(NC(=O)c2cccc(-c3ccc(O)cc3)c2)cn1	7 µM
O=c1cc(N2CCCCC2)c(-c2ccccc2)nn1Cc1ccc(Cl)cc1Cl	3.96 µM
CC(C)=CCCC1(C)C=Cc2c(c(C)cc3c2[nH]c2cc(O)ccc23)O1 (stereo not drawn)	6.29 µM
Cc1ncc(CN2CCCC(C(=O)Nc3ccc(-c4cccc(F)c4)cc3)C2)s1 (stereo not drawn)	11.7 µM
O=C1NC(=Nc2ccc(Cl)cc2)SC1Cc1cccc(Cl)c1Cl (stereo not drawn)	> 19.5 µM (inactive)
CCC(C)c1ccccc1NC(=O)COC(=O)c1ccc2[nH]c3c(c2c1)CCCC3 (stereo not drawn)	3.4 µM
CCSc1ncc(/C=N/Nc2ccc(Cl)cc2)n1C	6.75 µM
CCCc1nc(NC2CCCCC2)c(C#N)c2c1COC(C)(C)C2	7.68 µM
Cc1cc(N2CCCCC2)n2ncc(-c3ccc(Cl)cc3)c2n1	6.51 µM
Cc1ccc(NC(=O)c2nc(S(=O)(=O)Cc3ccccc3)ncc2Cl)cc1	6.39 µM
COc1ccc(-c2sc3ccccc3c2-c2ccc(O)cc2)cc1	6.43 µM
COC(=O)c1ccc(/C=C/c2c(-c3ccsc3)sc3ccccc23)cc1	7.46 µM
Cc1ccc(NS(=O)(=O)c2sc3ccc(Cl)cc3c2C)cc1	3.78 µM
CCOC(=O)CS(=O)(=O)c1nc(-c2ccccc2)cc(C(F)(F)F)n1	3.25 µM
O=C(/C=C/c1ccccc1)/C=C/c1ccccc1	2.84 µM
O=[N+]([O-])c1cccc(C2NCC(c3ccccc3Cl)c3c2[nH]c2ccccc32)c1 (stereo not drawn)	6.75 µM

Structure (SMILES)	AC50
O=[N+]([O-])c1nn(-c2ccc3c(c2)OCCO3)n(O)c1=NCCC1=CCCCC1	17.9 µM
O=C(Nc1cnn(C23CC4CC(CC(C4)C2)C3)c1)c1cc(-c2ccccc2)on1	11.4 µM
O=C(COc1ccccc1-c1ccccc1)N/N=C/c1cccc2ccccc12	0.608 µM
COC(=O)c1c(NC(=O)/C=C/c2ccc3c(c2)OCO3)sc(C)c1C	1.7 µM
Clc1ccc(-c2ccc(/C=N/Nc3cc(N4CCOCC4)nc(N4CCOCC4)n3)o2)cc1	4.24 µM
Cc1ccc2c(c1)c1ncn(CCC3=CCCCC3)c(=O)c1n2C	1.09 µM
Clc1ccc(/C=C/c2nc3ccccc3[nH]2)cc1	3.5 µM
CC(=NCc1cccc(Cl)c1)c1nc(-c2ccco2)oc1O	0.554 µM
CCC1=NN(C(=O)c2cccc(Br)c2)C(O)(c2ccc(Br)cc2)C1 (stereo not drawn)	1.37 µM
CC1(C)Cc2c(c(N3CCOCC3)nc3sc4c(NN)ncnc4c23)CS1	11.4 µM
CCOc1cc(N2CCOCC2)c(OCC)cc1NC(=O)CN1CCC(Cc2ccccc2)CC1	2.43 µM
CC(C)(C)c1nc(N2CCN(C(=O)c3ccco3)CC2)c2nnn(Cc3ccccc3Cl)c2n1	8.78 µM
COc1ccc(-c2cc(C(=O)N3CC4(C)CC3CC(C)(C)C4)no2)cc1 (stereo not drawn)	1.43 µM
COc1ccc(OC)c(-c2nnc3n2N=C(c2ccc(OC(F)F)c(OCC4CC4)c2)CS3)c1	4.26 µM
Cc1[nH]n(-c2ccc([N+](=O)[O-])cc2)c(=O)c1C=NCCN1CCN(C(=O)C(C)C)CC1	5.14 µM
CC(C)(C)C1CCC2(CC1)C(C#N)=C(SCC(=O)NC1CCCCC1)NC(=O)C2C#N (stereo not drawn)	9.88 µM
Cc1ccc(SC[C@H](C)CN2CC[C@H](C(C)(C)C)CCC2=O)cc1	6.63 µM
OC(COc1ccc2ccccc2c1Br)Cn1cnc(-c2ccccc2)c1 (stereo not drawn)	6.05 µM
Cc1ccc(-n2nnnc2SC(C(=O)c2c[nH]c3ccccc23)c2ccccc2)cc1 (stereo not drawn)	3.21 µM
C=CCn1c(SCc2c(C)noc2C)nc2sc3c(c2c1=O)CCCCC3	1.42 µM
COc1cccc(-c2cc(=O)c3cc(NC(=O)c4ccc(N(C)C)cc4)ccc3[nH]2)c1	0.559 µM
Cn1cccc1/C=C1\SC(=S)N(Nc2ccccc2)C1=O	2.31 µM
COc1ccc(OC)c(-c2csc(NC(=O)c3ccc(F)cc3)n2)c1	6.89 µM
COCCN(C(=O)C(C)C)c1nnc(-c2ccc(C(C)(C)C)cc2)s1	3.06 µM
N#Cc1c(N)nc2c(c1-c1cccc(O)c1)CCCCCC2	16.3 µM
